Data on three compounds can be found in the NIST ThermoML archive (doi:10.1016/j.jct.2007.01.013).

Numbers after ± are expanded uncertainties.

For series [1] the following is noted: Liquid; for mass density: 101.33 kPa; for Normal boiling temperature: Distillation.
A short description of series [2]: refractive index (Na D-line) (dimensionless). As to conditions: 293.15 K; 101.33 kPa; Liquid; Standard Abbe refractometry.

In the case of `COC(=O)c1ccccc1C(=O)OC` [dimethyl 1,2-benzenedicarboxylate], the mass density in series [1] (293.15 K) was 1190.53 ± 1.5 kg/m3. In addition, the Normal boiling temperature in series [1] was determined as 283.6 ± 0.2 °C. Further, in series [2], the refractive index worked out at 1.51384 ± 0.0007.

For `CCCCOC(=O)c1ccccc1C(=O)OCCCC` [dibutyl phthalate], in series [1] (293.15 K), the mass density is on record as 1046.54 ± 0.79 kg/m3. In series [1], the Normal boiling temperature amounted to 340.1 ± 0.2 °C. Moreover, the refractive index in series [2] was 1.49114 ± 0.0007.

Regarding `CCOC(=O)CC` [ethyl propanoate], the mass density in series [1] (298 K) is 884.35 ± 1 kg/m3. In series [1], the Normal boiling temperature was found to be 99.1 ± 0.2 °C. Moreover, the refractive index in series [2] amounted to 1.38394 ± 0.0007.

The term mass density denotes the mass of a sample divided by its volume. As usually defined, the refractive index is the speed of light in vacuum divided by its phase velocity in the sample.
